Results published in ChEMBL document CHEMBL1201862, “PubChem BioAssay data set” (2004).
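Briefly, cells in 96-well plates were exposed to five compound concentrations for 48 h, and endpoints were estimated by linear interpolation. GI50 marks 50% less growth.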 Calls of active or inactive are those of the source. Rule as the data show it: active = GI50 up to about 1.1 µM and inactive = higher.

Columns and labels:
Assay in all cases: NCI-60 cell line screen, 48 h
786-0 = system: 786-0
A549 = system: A549
EKVX = system: EKVX
HCC 2998 = system: HCC 2998
HCT-116 = system: HCT-116
HOP-92 = system: HOP-92
M14 = system: M14
MOLT-4 = system: MOLT-4
SF-268 = system: SF-268
SF-295 = system: SF-295
SF-539 = system: SF-539
SK-MEL-28 = system: SK-MEL-28
SK-MEL-2 = system: SK-MEL-2
SNB-19 = system: SNB-19
IGROV-1 = system: IGROV-1
UACC-62 = system: UACC-62
DU-145 = system: DU-145
NCI/ADR-RES = system: NCI/ADR-RES

Structure (SMILES)	GI50 (786-0)	GI50 (A549)	GI50 (EKVX)	GI50 (HCC 2998)	GI50 (HCT-116)	GI50 (HOP-92)	GI50 (M14)	GI50 (MOLT-4)	GI50 (SF-268)	GI50 (SF-295)	GI50 (SF-539)	GI50 (SK-MEL-28)	GI50 (SK-MEL-2)	GI50 (SNB-19)	GI50 (IGROV-1)	GI50 (UACC-62)	GI50 (DU-145)	GI50 (NCI/ADR-RES)
Cc1cc(NCCCCCCCCNc2cc(C)nc3cc(N(C)C)ccc23)c2ccc(N(C)C)cc2n1	7.16 µM (inactive)	3.31 µM (inactive)	7.1 µM (inactive)	4.3 µM (inactive)	3.4 µM (inactive)	2.58 µM (inactive)	3.73 µM (inactive)	2 µM (inactive)	3.48 µM (inactive)	8.65 µM (inactive)	3.23 µM (inactive)	0.933 µM (active)	5.13 µM (inactive)	3.09 µM (inactive)	–	–	–	–
COc1cc2c(cc1OC(=O)CC(C)O)C1C(OC2=O)C(OC(C)=O)C=C2CCN(C)[C@H]21 (some centres not stated)	17.9 µM (inactive)	64.3 µM (inactive)	65.8 µM (inactive)	26.2 µM (inactive)	58.7 µM (inactive)	17.3 µM (inactive)	68.5 µM (inactive)	47.2 µM (inactive)	46.3 µM (inactive)	20.7 µM (inactive)	21.4 µM (inactive)	29 µM (inactive)	15.9 µM (inactive)	20.7 µM (inactive)	21.5 µM (inactive)	31.1 µM (inactive)	–	–
CCCCCCCCCCCCCCCCCCCCCC(=O)Nc1ccn(C2OC(CO)C(O)C2O)c(=O)n1 (configuration not stated)	9.62 µM (inactive)	4.68 µM (inactive)	> 100 µM (inactive)	> 100 µM (inactive)	6.89 µM (inactive)	> 40.8 µM (inactive)	4.91 µM (inactive)	0.273 µM (active)	18.4 µM (inactive)	> 84.3 µM (inactive)	> 100 µM (inactive)	> 100 µM (inactive)	> 100 µM (inactive)	> 57 µM (inactive)	> 68.9 µM (inactive)	33.6 µM (inactive)	–	–
O=C1CCCC2COc3ccc(O)c1c32 (configuration not stated)	> 100 µM (inactive)	> 100 µM (inactive)	> 100 µM (inactive)	> 100 µM (inactive)	–	> 100 µM (inactive)	> 100 µM (inactive)	> 100 µM (inactive)	> 100 µM (inactive)	> 100 µM (inactive)	> 100 µM (inactive)	> 100 µM (inactive)	> 100 µM (inactive)	> 100 µM (inactive)	> 100 µM (inactive)	> 100 µM (inactive)	–	–
Clc1cccc2c1OCC1C(c3ccccc3)=NN(c3ccccc3)C21 (configuration not stated)	55.6 µM (inactive)	66.2 µM (inactive)	40.1 µM (inactive)	> 100 µM (inactive)	12.9 µM (inactive)	64.4 µM (inactive)	–	35.2 µM (inactive)	63.2 µM (inactive)	72.1 µM (inactive)	–	> 100 µM (inactive)	> 100 µM (inactive)	96.4 µM (inactive)	> 100 µM (inactive)	–	–	–
C[N+](C)(C)CC(CC(=O)[O-])C1CC1 (configuration not stated)	> 100 µM (inactive)	> 100 µM (inactive)	> 100 µM (inactive)	–	–	> 100 µM (inactive)	> 100 µM (inactive)	> 100 µM (inactive)	> 100 µM (inactive)	> 100 µM (inactive)	> 100 µM (inactive)	> 100 µM (inactive)	> 100 µM (inactive)	> 100 µM (inactive)	> 100 µM (inactive)	> 100 µM (inactive)	–	–
O=C(Cc1nc2c3c(ccc2nc1O)C(=O)c1ccccc1C3=O)C(=O)Nc1ccccc1[N+](=O)[O-]	15.3 µM (inactive)	49.4 µM (inactive)	17.5 µM (inactive)	19.1 µM (inactive)	26.6 µM (inactive)	20.7 µM (inactive)	16.3 µM (inactive)	4.22 µM (inactive)	14.4 µM (inactive)	> 10 µM (inactive)	17.6 µM (inactive)	16.1 µM (inactive)	19.1 µM (inactive)	16.6 µM (inactive)	29.6 µM (inactive)	25.6 µM (inactive)	–	–
COC(C/C(=C/CO[Si](C(C)C)(C(C)C)C(C)C)C(=O)Nc1ccccc1I)OC	24.1 µM (inactive)	22.9 µM (inactive)	–	16.4 µM (inactive)	8.97 µM (inactive)	19 µM (inactive)	29.9 µM (inactive)	11.8 µM (inactive)	46.9 µM (inactive)	8.63 µM (inactive)	19.8 µM (inactive)	59.4 µM (inactive)	15.2 µM (inactive)	18.4 µM (inactive)	2.99 µM (inactive)	53.5 µM (inactive)	13 µM (inactive)	22.9 µM (inactive)
FC(F)(F)c1cccc(C2SCc3nc4ccccc4n32)c1 (configuration not stated)	61.5 µM (inactive)	56.1 µM (inactive)	73.3 µM (inactive)	> 100 µM (inactive)	38.9 µM (inactive)	2.41 µM (inactive)	–	41.4 µM (inactive)	90.6 µM (inactive)	33.9 µM (inactive)	26.6 µM (inactive)	65.9 µM (inactive)	> 100 µM (inactive)	51.3 µM (inactive)	33.7 µM (inactive)	> 100 µM (inactive)	–	–
O=c1oc2c(O)c(O)cc3c(=O)oc4c(O)c(O)cc1c4c23 [ELLAGIC ACID]	27.2 µM (inactive)	68.2 µM (inactive)	57.4 µM (inactive)	> 10 µM (inactive)	92 µM (inactive)	31 µM (inactive)	18.5 µM (inactive)	> 10 µM (inactive)	56.5 µM (inactive)	> 10 µM (inactive)	> 10 µM (inactive)	> 10 µM (inactive)	78.2 µM (inactive)	18.7 µM (inactive)	45.4 µM (inactive)	40.8 µM (inactive)	–	–
NNC(=O)C(=O)N/N=C1\CCC(=O)CC1C(=O)CCC(=O)Nc1ccc(Cl)cc1 (configuration not stated)	> 100 µM (inactive)	> 100 µM (inactive)	> 100 µM (inactive)	> 100 µM (inactive)	> 100 µM (inactive)	–	> 100 µM (inactive)	> 100 µM (inactive)	> 100 µM (inactive)	> 100 µM (inactive)	> 100 µM (inactive)	> 100 µM (inactive)	> 100 µM (inactive)	> 100 µM (inactive)	> 100 µM (inactive)	> 100 µM (inactive)	–	–
COc1cc(C(O)C(=O)c2cnc3cc([N+](=O)[O-])ccc3n2)ccc1O (configuration not stated)	> 100 µM (inactive)	> 100 µM (inactive)	72.3 µM (inactive)	> 100 µM (inactive)	> 100 µM (inactive)	–	> 100 µM (inactive)	> 100 µM (inactive)	–	> 100 µM (inactive)	> 100 µM (inactive)	–	> 100 µM (inactive)	> 100 µM (inactive)	> 100 µM (inactive)	62.1 µM (inactive)	–	–
C/C(=C1/N=C(c2cc([N+](=O)[O-])ccc2Cl)N(c2ccc(Br)cc2)C1=O)c1ccc(N(CCC#N)CCC#N)cc1C	29.6 µM (inactive)	22.5 µM (inactive)	> 100 µM (inactive)	32.1 µM (inactive)	15.6 µM (inactive)	36.4 µM (inactive)	13.6 µM (inactive)	9.62 µM (inactive)	61.7 µM (inactive)	79.3 µM (inactive)	52.2 µM (inactive)	49.5 µM (inactive)	21.8 µM (inactive)	19.8 µM (inactive)	28.4 µM (inactive)	3.61 µM (inactive)	–	–
N#Cc1nc(-c2cccnc2)oc1N	> 100 µM (inactive)	–	> 100 µM (inactive)	> 100 µM (inactive)	> 100 µM (inactive)	> 100 µM (inactive)	–	74 µM (inactive)	> 100 µM (inactive)	–	–	> 100 µM (inactive)	> 100 µM (inactive)	> 100 µM (inactive)	> 100 µM (inactive)	> 100 µM (inactive)	> 100 µM (inactive)	–
Cc1ccc(NC(=O)C(=O)CC(=O)C2CCOC2=O)c(C)c1 (configuration not stated)	> 100 µM (inactive)	> 100 µM (inactive)	> 100 µM (inactive)	> 100 µM (inactive)	> 100 µM (inactive)	> 100 µM (inactive)	> 100 µM (inactive)	–	> 100 µM (inactive)	> 100 µM (inactive)	> 100 µM (inactive)	> 100 µM (inactive)	> 100 µM (inactive)	> 100 µM (inactive)	> 100 µM (inactive)	> 100 µM (inactive)	–	–
COc1cc(/C=C\c2ccc(Cl)cc2)cc(OC)c1OC	0.113 µM (active)	0.196 µM (active)	0.439 µM (active)	1.73 µM (inactive)	0.0652 µM (active)	0.326 µM (active)	0.0647 µM (active)	0.0762 µM (active)	0.843 µM (active)	0.0331 µM (active)	0.147 µM (active)	0.454 µM (active)	0.245 µM (active)	0.322 µM (active)	1.08 µM (active)	0.0885 µM (active)	–	–
Cc1ccc(S(=O)(=O)N(CC(O)COc2ccccc2)c2ccc(F)cc2F)cc1 (configuration not stated)	16.8 µM (inactive)	12.9 µM (inactive)	14.7 µM (inactive)	14.1 µM (inactive)	–	0.122 µM (active)	17.3 µM (inactive)	22.8 µM (inactive)	15.3 µM (inactive)	17.2 µM (inactive)	16.4 µM (inactive)	15.8 µM (inactive)	15.5 µM (inactive)	18.1 µM (inactive)	–	13.5 µM (inactive)	16.6 µM (inactive)	15.9 µM (inactive)
CCCCCC(O)(CCCCC)CCCCCCCCC1=C(O)C(=O)c2ccc(=O)[nH]c2C1=O	8.63 µM (inactive)	5.41 µM (inactive)	13.4 µM (inactive)	14.5 µM (inactive)	4.34 µM (inactive)	13.3 µM (inactive)	10 µM (inactive)	6.3 µM (inactive)	5.02 µM (inactive)	4.37 µM (inactive)	7.6 µM (inactive)	8.32 µM (inactive)	3.06 µM (inactive)	5.48 µM (inactive)	5.53 µM (inactive)	3.2 µM (inactive)	–	–
